# Values joined by “and” are separate entries in the source; they are usually repeats but may differ in a detail not shown here. Equal entries are not always repeated. Where two headings read alike, the source gives them in different places.
# Legend:
# HCT116-PHF5A^R38C = experiment: CellTiter-Glo viability assay, HCT116-PHF5A^R38C; assay type: cell-based, human; settings: for GI50: Homo sapiens, 72 h, read-out: HCT116-PHF5A^R38C GI50
# Description: (§1) To further validate the pose of the compound, we analyzed the activity of several related chemical probes using the SPA with the purified protein complex ([Teng et al. 2017]). The SPA is formatted as a competition assay in which the purified protein complex is captured on a bead containing scintillant, incubated with test compounds over a dose response, and then competed off with a fixed concentration of ^3H-Plad compound. IC50 curves are then measured from the resulting light emitted from the bead (Table 1; Supplemental Fig. S4). In addition, we tested the probes in viability assays in two engineered cell lines: HCT116-PHF5A^WT and the sensitization line HCT116-PHF5A^R38C (Table 1; Supplemental Fig. S5). This facilitates profiling of chemical probe activity in the PHF5A background (wild type and mutant). The relative expression levels were further confirmed by Western blot analysis (Supplemental Fig. S5).
# (§2) Parental HCT116 cells were obtained from American Type Culture Collection and cultured in RPMI 1640 medium supplemented with 10% fetal bovine serum. PHF5A R38C was generated using the Agilent QuikChange II kit and was cloned into pLenti6.3/V5 as described ([Teng et al. 2017]). The verified clone was used for lentivirus production using X293T cells. Parental HCT116 cells were infected with virus and selected with blasticidin S at 10 µg mL^−1 for 1 wk. Engineered cell lines were subsequently maintained in the absence of antibiotic. Transgene expression was confirmed by Western blot analysis (Supplemental Fig. S4). For Western blot analysis, α-PHF5A rabbit polyclonal antibody (Protein Tech, 15554-1-AP) was used at 1:1000 dilution in LI-COR buffer, and anti-rabbit secondary antibody (LI-COR) was used at 1:5000 dilution. The Western blot was imaged using an Odyssey V3.0 imager (LI-COR). For CellTiter-Glo analysis of the wild-type and PHF5A^R38C cell lines, 500 cells were seeded in each well of a 384-well plate 1 d before compound addition. Dose response was measured in 11-point serial dilutions with a top dose of 10 µM. The percentage of DMSO was controlled throughout, and a DMSO-only control was included. Seventy-two hours after dosing, CellTiter-Glo reagent was added, incubated, and assayed on an EnVision multilabel reader (PerkinElmer). Luminescence values from each treatment were normalized to the average value of the respective DMSO control. The dose response curve plots were generated in GraphPad Prism, and GI50 values were calculated from nonlinear regression analysis. GI50 values for the wild-type and R38C mutant cell lines were plotted in Spotfire.
# HCT116-PHF5A^WT = experiment: CellTiter-Glo viability assay, HCT116-PHF5A^WT; assay type: cell-based, human; settings: for GI50: Homo sapiens, 72 h, read-out: HCT116-PHF5A^WT GI50
# Description: as §1, §2
# [1] = system: splicing of Ad2.2 pre-mRNA substrate; experiment: In vitro splicing (IVS) assay, Ad2.2 substrate, HeLa S3 nuclear extracts, RT-qPCR; assay type: biochemical, human; settings: for inhibition of strong and weak IVS substrates: Ad2.1 and Ad2.2 substrates compared; for IC50: Ad2.2 (weak) substrate
# Text: (§3) A substrate competitive mechanism of action (MOA) would predict that weaker pre-mRNA substrates would be easier to inhibit than stronger substrates. To date, it has not been possible to evaluate substrate competition using traditional steady-state conditions because splicing reactions are thought to be single-turnover events in vitro, and therefore it is not possible to measure a KM for the pre-mRNA. […] Specifically, we engineered the strong in vitro splicing substrate Ad2.1 by enhancing the U2 snRNP base-pairing around the BPA found in the Ad2 substrate. We then engineered a weaker substrate, Ad2.2, by adding a decoy BPS lacking an extrahelical adenosine (Ad2.2) (Fig. 5A; Supplemental Vector NTI files; [Corrionero et al. 2011]). […] We then evaluated E7107 and several chemical probes to better understand their mechanism.
# (§4) Figure 5. […] (A) Base-pairing logic for IVS substrates. (BPRS) Branch point recognition sequence in U2 snRNA; (BPS) the BPS in the pre-mRNA. The Ad2 gene BPS sequence (UACUUAU) was modified (UACUAAU) to strengthen the U2 base-pairing interactions flanking the BPA, leading to the Ad2.1 substrate (BPA in red). The Ad2.2 sequence has the same BPS as Ad2 but also contains a 5′ decoy BPS sequence (lacking an extrahelical adenine) that can base-pair with the BPRS. The decoy BPS and suboptimal BPS overlap, which gives U2 at least two possibilities for possible base pairing, as indicated. […] (B) RT-qPCR time-course data showing product formation over time. […] (C) Representative IC50 curves for compound 6 using the two different substrates (Ad2.1 and Ad2.2).
# (§5) The Ad2-derived ([Pellizzoni et al. 1998]) sequence was cloned into the pGEM-3Z vector (Promega) using 5′ EcoRI and 3′ XbaI restriction sites. The Ad2 variant (Ad2.2) ([Seiler et al. 2018]) was cloned into pcDNA3.1(+) vector (Promega) using the same restriction sites. The plasmids were linearized using XbaI and used as DNA templates in the in vitro transcription reactions. The FtzΔi intron-less plasmid ([Luo and Reed 1999]) was linearized using EcoRI. All RNAs were in vitro transcribed and then purified using MegaScript T7 and MegaClear kits, respectively (Invitrogen). For splicing reactions used with the Ad2.2 substrate, […] reactions were prepared using 8 µg of nuclear extracts prepared from HeLa S3, a saturating excess of 2 ng of pre-mRNA substrate, 0.2 ng of FTZΔi, and varying concentrations of compounds or DMSO.
# [2] = system: splicing of Ad2.1 pre-mRNA substrate; experiment: In vitro splicing (IVS) assay, Ad2.1 substrate, HeLa S3 nuclear extracts, RT-qPCR; assay type: biochemical, human; settings: Ad2.1 (strong) substrate
# Text: as §3, §4, §5
# [3] = target: T1, wild-type mini-SF3b complex (4-protein SF3b complex) (Homo sapiens, UniProt O75533+Q7RTV0); experiment: Scintillation proximity assay (SPA) competition with 3H-labeled pladienolide probe; assay type: binding; settings: for activity after truncating the diene tail: assays of Table 1
# T1 construct: SF3B1 was limited to the HEAT repeat domain from residues 454–1304 and cloned in-frame with an N-terminal Flag tag; Truncated SF3B1 and full-length SF3B3, PHF5A, and SF3B5 were synthesized; made in house; host or cells: SF21 insect cells (baculovirus, pFastBac1)
# T1 sequence (Q7RTV0 whole entry, the tested form may be a part): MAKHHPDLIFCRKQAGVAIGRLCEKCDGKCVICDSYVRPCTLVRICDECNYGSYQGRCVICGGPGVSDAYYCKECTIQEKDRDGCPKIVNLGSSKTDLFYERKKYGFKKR
# T1 sequence (Q15393 whole entry, further chain, the tested form may be a part): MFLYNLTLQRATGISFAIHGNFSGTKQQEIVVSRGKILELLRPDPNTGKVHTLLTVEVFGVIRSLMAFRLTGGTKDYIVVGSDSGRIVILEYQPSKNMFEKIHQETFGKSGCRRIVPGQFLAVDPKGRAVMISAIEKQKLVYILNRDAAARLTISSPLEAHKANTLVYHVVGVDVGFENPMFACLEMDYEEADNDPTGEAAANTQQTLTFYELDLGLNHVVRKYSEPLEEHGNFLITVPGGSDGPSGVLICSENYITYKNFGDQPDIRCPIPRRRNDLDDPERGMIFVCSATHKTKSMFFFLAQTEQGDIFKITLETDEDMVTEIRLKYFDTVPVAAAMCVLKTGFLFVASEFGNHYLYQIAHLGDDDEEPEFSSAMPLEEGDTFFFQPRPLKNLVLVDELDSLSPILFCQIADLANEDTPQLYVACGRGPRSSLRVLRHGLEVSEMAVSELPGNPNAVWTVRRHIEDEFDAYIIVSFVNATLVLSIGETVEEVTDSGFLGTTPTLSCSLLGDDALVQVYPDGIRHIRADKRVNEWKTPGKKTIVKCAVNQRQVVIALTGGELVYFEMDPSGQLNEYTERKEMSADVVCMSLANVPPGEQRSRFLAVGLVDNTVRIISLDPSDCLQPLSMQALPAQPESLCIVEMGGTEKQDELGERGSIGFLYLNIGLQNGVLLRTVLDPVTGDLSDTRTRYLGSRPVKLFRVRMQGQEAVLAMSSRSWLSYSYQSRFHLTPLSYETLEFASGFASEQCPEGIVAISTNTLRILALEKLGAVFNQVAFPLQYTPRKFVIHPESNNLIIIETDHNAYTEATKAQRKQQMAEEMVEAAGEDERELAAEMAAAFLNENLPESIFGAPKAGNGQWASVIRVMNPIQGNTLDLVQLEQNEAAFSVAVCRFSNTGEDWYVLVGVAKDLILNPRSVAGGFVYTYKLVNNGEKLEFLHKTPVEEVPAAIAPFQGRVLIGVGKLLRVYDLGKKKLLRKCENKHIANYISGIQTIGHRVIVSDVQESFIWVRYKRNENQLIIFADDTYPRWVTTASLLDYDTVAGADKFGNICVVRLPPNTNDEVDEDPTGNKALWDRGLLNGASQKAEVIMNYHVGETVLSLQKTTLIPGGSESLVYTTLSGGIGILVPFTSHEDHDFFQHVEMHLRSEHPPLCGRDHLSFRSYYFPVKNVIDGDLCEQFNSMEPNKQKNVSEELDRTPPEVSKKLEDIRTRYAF
# T1 sequence (O75533 454-1304): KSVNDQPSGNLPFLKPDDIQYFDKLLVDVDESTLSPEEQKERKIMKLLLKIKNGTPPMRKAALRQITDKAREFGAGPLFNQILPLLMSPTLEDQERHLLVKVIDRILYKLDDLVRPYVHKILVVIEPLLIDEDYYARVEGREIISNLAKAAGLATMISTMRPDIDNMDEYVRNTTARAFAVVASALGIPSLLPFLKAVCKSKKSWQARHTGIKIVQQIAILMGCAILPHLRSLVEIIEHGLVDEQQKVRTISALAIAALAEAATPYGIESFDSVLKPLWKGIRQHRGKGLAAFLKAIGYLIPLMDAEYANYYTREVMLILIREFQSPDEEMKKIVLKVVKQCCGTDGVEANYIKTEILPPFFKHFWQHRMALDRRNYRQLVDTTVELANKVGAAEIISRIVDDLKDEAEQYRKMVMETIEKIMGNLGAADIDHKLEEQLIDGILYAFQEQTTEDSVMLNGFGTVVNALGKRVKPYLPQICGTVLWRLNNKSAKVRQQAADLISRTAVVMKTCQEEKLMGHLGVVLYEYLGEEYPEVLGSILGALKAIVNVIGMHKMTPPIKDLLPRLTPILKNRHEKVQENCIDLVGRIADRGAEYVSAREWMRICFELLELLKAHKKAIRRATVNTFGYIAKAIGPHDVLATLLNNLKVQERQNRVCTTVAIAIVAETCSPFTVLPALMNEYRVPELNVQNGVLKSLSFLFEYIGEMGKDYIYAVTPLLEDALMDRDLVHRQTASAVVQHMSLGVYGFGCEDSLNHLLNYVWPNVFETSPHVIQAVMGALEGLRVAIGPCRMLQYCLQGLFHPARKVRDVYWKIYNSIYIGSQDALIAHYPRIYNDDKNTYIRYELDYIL
# T1 sequence (Q9BWJ5 whole entry, further chain, the tested form may be a part): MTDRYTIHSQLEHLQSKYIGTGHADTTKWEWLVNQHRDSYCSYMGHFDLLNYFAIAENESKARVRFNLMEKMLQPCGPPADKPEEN
# Description: as §1
# Batch immobilization of the anti-Flag antibody (Sigma) to the anti-mouse PVT SPA scintillation beads (PerkinElmer) was prepared as follows. For every 1.5 mg of beads, 10 µg of antibody was prepared in 150 µL of PBS. The antibody–bead mixture was incubated for 30 min at room temperature and centrifuged at 18,000g for 5 min. One-hundred-fifty microliters of PBS was used to resuspend every 1.5 mg of antibody–bead mixture. The aforementioned mini-SF3b complex was tested for ^3H-labeled pladienolide probe binding ([Kotake et al. 2007]). One-hundred microliters of binding reactions was prepared with […] of bead slurry and 0 or 50 nM protein in buffer (20 mM HEPES at pH 8, 200 mM KCl, 5% glycerol). The mixture was incubated for 30 min, and varying concentrations of ^3H-labeled pladienolide probe were added. The mixture was incubated for 30 min, and luminescence signals were read using a MicroBeta2 plate counter (PerkinElmer). Compound competition studies were performed with the wild-type mini-SF3b complex. One-hundred microliters of binding reactions was prepared with 50 µL of bead slurry, 25 nM protein in buffer, and compounds at varying concentrations. After 30 min of preincubation, 10 nM ^3H-labeled pladienolide probe was added. The reactions were incubated for 30 min, and luminescence signals were read.
# The Scintillation proximity assay (SPA) competition assay with 10 nM 3H tracer for different Pladienolide analogs binding to the 4-protein SF3b complex. Error bars represent STD for 2 or more measurements. Red = E7107, Orange = PladD, Purple = PladF, Green = compound 2, red = compound 3, gray = compound 4, black = compound 5, blue = compound 6. […]
# [4] = system: HCT116 cell lines overexpressing PHF5A WT and mutants; experiment: Viability curves in HCT116 cell lines overexpressing PHF5A WT and mutants; assay type: cell-based, human
# Description: Parental HCT116 cells were obtained from American Type Culture Collection and cultured in RPMI 1640 medium supplemented with 10% fetal bovine serum. […] Parental HCT116 cells were infected with virus and selected with blasticidin S at 10 µg mL^−1 for 1 wk. Engineered cell lines were subsequently maintained in the absence of antibiotic. Transgene expression was confirmed by Western blot analysis (Supplemental Fig. S4). For Western blot analysis, α-PHF5A rabbit polyclonal antibody (Protein Tech, 15554-1-AP) was used at 1:1000 dilution in LI-COR buffer, and anti-rabbit secondary antibody (LI-COR) was used at 1:5000 dilution. The Western blot was imaged using an Odyssey V3.0 imager (LI-COR). For CellTiter-Glo analysis of the wild-type and PHF5A^R38C cell lines, 500 cells were seeded in each well of a 384-well plate 1 d before compound addition. Dose response was measured in 11-point serial dilutions with a top dose of 10 µM. The percentage of DMSO was controlled throughout, and a DMSO-only control was included. Seventy-two hours after dosing, CellTiter-Glo reagent was added, incubated, and assayed on an EnVision multilabel reader (PerkinElmer). Luminescence values from each treatment were normalized to the average value of the respective DMSO control. The dose response curve plots were generated in GraphPad Prism, and GI50 values were calculated from nonlinear regression analysis. […]
# [5] = competition with 10 nM 3H-labeled pladienolide probe, 25 nM protein, read-out: SPA IC50
Molecule,GI50 (HCT116-PHF5A^R38C; CellTiter-Glo) [µM],GI50 (HCT116-PHF5A^WT; CellTiter-Glo) [µM],IC50 [1],IC50 [2],"IC50 [3, 5] [µM]",PHF5A^R38C sensitization phenotype (words) (HCT116-PHF5A^R38C; R38C vs wild type),also measured
CCC(O)C(C)C1OC1CC(C)(O)C=CC=C(C)C1OC(=O)CC(O)CCC(C)(O)C(OC(=O)N2CC[N+](C)(C3CCCCCC3)CC2)C=CC1C (centres unmarked) [Compound 1],> 0.4,> 0.4,0.184 µM and 0.177 µM,0.177 µM and 0.184 µM,,,inhibition of strong and weak IVS substrates [1]: inhibit both the strong and weak substrates equally well
CCC(O)C(C)C1OC1CC(C)(O)C=CC=C(C)C1OC(=O)CC(O)CCC(C)(O)C(OC(=O)N2CC[N+](Cc3ccccc3)(C3CCCCCC3)CC2)C=CC1C (centres unmarked) [Compound 2],,,,,0.236,,GI50 (HCT116-PHF5A^R38C): 0.259 µM; GI50 (HCT116-PHF5A^WT): > 0.4 µM
CCC(O)C(C)C1OC1CC(C)(O)C=CC=C(C)C1OC(=O)CC(OC(=O)C2CC2)CCC(C)(O)C(OC(=O)N2CCN(C3CCCCCC3)CC2)C=CC1C (centres unmarked) [Compound 3],0.243,> 0.4,0.966 µM,> 25 µM,> 4,,activity in the SPA binding assay ([3]; relative to E7107): total loss of activity
C/C(=C\C(=O)O)[C@H]1OC(=O)C[C@H](O)CC[C@@](C)(O)[C@@H](OC(=O)N2CCN(C3CCCCCC3)CC2)/C=C/[C@@H]1C [Compound 4],> 0.4,> 0.4,> 25 µM,> 25 µM,> 4,,activity after truncating the diene tail [3]: completely eliminates activity
C/C(=C\CO)[C@H]1OC(=O)C[C@H](O)CC[C@@](C)(O)[C@@H](OC(=O)N2CCN(C3CCCCCC3)CC2)/C=C/[C@@H]1C [Compound 5],> 0.4,> 0.4,16 µM,> 25 µM,> 4,,activity after truncating the diene tail [3]: completely eliminates activity
C/C(=C\C=C\[C@@H](C)c1ccccn1)[C@H]1OC(=O)C[C@H](O)CC[C@@](C)(O)[C@@H](OC(=O)N2CCN(C3CCCCCC3)CC2)/C=C/[C@@H]1C [Compound 6],0.011,0.034,0.023 µM,> 25 µM,0.376,,loss of potency relative to E7107 in the SPA ([3]; relative to E7107): sixfold; loss of potency relative to E7107 in viability assays (HCT116-PHF5A^WT): ~10 fold; inhibition of strong and weak IVS substrates [1]: inhibit only the weak substrate
CCC(O)C(C)C1OC1CC(C)(O)C=CC=C(C)C1OC(=O)CC(O)CCC(C)(O)C(OC(C)=O)C=CC1C (centres unmarked) [Plad D],,,,,,,PHF5A^R38C sensitization phenotype (words) (HCT116-PHF5A^R38C): did not observe this trend; GI50 (HCT116-PHF5A^R38C): 0.018 µM; IC50 [3]: 0.097 µM; activity in the SPA binding assay [3]: nearly equipotent to E7107; GI50 (HCT116-PHF5A^WT): 0.026 µM
CCC(O)C(C)C1OC1CC(C)(O)C=CC=C(C)C1OC(=O)CC(O)CCC(C)(O)C(O)C=CC1C (centres unmarked) [Plad F],> 0.4,> 0.4,0.171 µM,> 25 µM,1.5,,loss of potency relative to E7107 in the SPA ([3]; relative to E7107): 20 fold; loss of potency relative to E7107 in viability assays (HCT116-PHF5A^WT): > 200 fold; inhibition of strong and weak IVS substrates [1]: inhibit only the weak substrate
CC(C)C[C@H](NC(=O)[C@H](Cc1ccccc1)NC(=O)c1cnccn1)B(O)O [bortezomib],,,,,,lie near the line of unity,killing of cell lines irrespective of PHF5A mutation status [4]: kills all of the cell lines at the same concentration
CO[C@H]([C@@H](C)[C@H]1O[C@]1(C)C[C@H](C)/C=C/C=C(\C)[C@H]1O[C@@H](CC(=O)O)CC[C@@H]1C)[C@@H](C)O [herboxidiene],,,,,,not and did not exhibit this sensitization phenotype and lie near the line of unity,
CO[C@]1(C)C[C@@]2(CO2)[C@H](O)[C@@H](/C=C/C(C)=C/C[C@@H]2O[C@H](C)[C@H](NC(=O)/C=C\[C@H](C)OC(C)=O)C[C@@H]2C)O1 [spliceostatin],,,,,,did not exhibit this sensitization phenotype,"PHF5A^R38C sensitization phenotype (words) (HCT116-PHF5A^R38C; R38C vs wild type, listed as Spliceostatin): lie near the line of unity"
pladienolide B [PladB],,,,,,did not observe this trend,

# Reference: paper PMC5859971 (Genes & Development, 2018)
